The values below come from patent US9227971B2, “Pyrazolo[1,5-a]pyrimidine compounds as mTOR inhibitors” (Merck Sharp & Dohme Corp., priority 2010, dated 2016).

The test system of experiment [1] is phosphorylated 4E-BP1 Thr37/46 (p4E-BP1 Thr37/46), mTORC1 activity, PC3 cells. The experiment can be described thus: mTOR target engagement assay, immunofluorescent cell-based, p4E-BP1 Thr37/46 readout (mTORC1 activity). Conditions: read-out: p4E-BP1 Thr37/46 IC50. The essentials: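 Cell-based immunofluorescence in PC3 cells: serially diluted compounds (0.25% DMSO, 5% FBS) applied for ninety minutes at 37° C before fixation and overnight 4° C staining of p4E-BP1 Thr37/46. Untreated DMSO wells set maximal phosphorylation; IC50 obtained by logistic fitting.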

Experiment [2] concerns phosphorylated AKT Ser473 (pAKT S473), mTORC2 activity, PC3 cells. The experiment can be described thus: mTOR target engagement assay, immunofluorescent cell-based, pAKT S473 readout (mTORC2 activity). The essentials: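 After blocking, cells were stained overnight at 4 °C with anti-pAKT S473 antibody, then a fluorescent secondary; inhibition was read as reduced fluorescence intensity.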

[3] abbreviates: Homo sapiens, PC-3, Table 3-1, PC3 cells.
Setting [4] is: Homo sapiens, PC-3, PC3 cells, compound treatment ninety minutes at 37° C.
[5] abbreviates: Homo sapiens, PC-3, Table 6-1, PC3 cells.

pIC50: −log10 of the molar value. Like-named read-outs stand apart in the source and are kept apart here.

For the compound `CS(=O)(=O)c1c([C@@H]2C[C@H]3CC[C@@H](C2)N3C(=O)[C@H]2COC(=O)N2)nc2c(-c3ccc(-c4ccccc4)nc3)cnn2c1N` [Compound 3.142, (R)-4-((1R,3S,5S)-3-(7-amino-6-(methylsulfonyl)-3-(6-phenylpyridin-3-yl)pyrazolo[1,5-a]pyrimidin-5-yl)-8-azabicyclo[3.2.1]octane-8-carbonyl)oxazolidin-2-one], the pIC50 in experiment [1] (setting [3]) and in experiment [2] (setting [3]) was 6.00 to 7.00 each time.
As for `Nc1c(C2CC2)c(C2CC3CCC(C2)N3C(=O)c2nnc(N3CCOCC3)[nH]2)nc2c(-c3ccc(-c4ccccc4)nc3)cnn12` [Compound 8.105, ((1R,3s,5S)-3-(7-amino-6-cyclopropyl-3-(6-phenylpyridin-3-yl)pyrazolo[1,5-a]pyrimidin-5-yl)-8-azabicyclo[3.2.1]octan-8-yl)(5-morpholino-4H-1,2,4-triazol-3-yl)methanone], the pIC50 in experiment [1] (Homo sapiens, PC-3, PC3 cells) is 5.00 to 6.00; in experiment [2] (Homo sapiens, PC-3, PC3 cells) it was 5.00 to 6.00.
As to `CS(=O)(=O)c1c(C2CC3COCC(C2)N3C(=O)c2nc[nH]n2)nc2c(-c3ccc(-c4ccccc4)nc3)cnn2c1N` (centres unmarked) [Compound 8.29, (7-(7-amino-6-(methylsulfonyl)-3-(6-phenylpyridin-3-yl)pyrazolo[1,5-a]pyrimidin-5-yl)-3-oxa-9-azabicyclo[3.3.1]nonan-9-yl)(1H-1,2,4-triazol-3-yl)methanone], the pIC50 was 7.00 to 9.00 in experiment [1] (Homo sapiens, PC-3, PC3 cells) and 7.00 to 9.00 in experiment [2] (Homo sapiens, PC-3, PC3 cells).
For the compound `COCc1c([C@@H]2C[C@H]3CC[C@@H](C2)N3C(=O)c2nnc[nH]2)nc2c(-c3ccc(-c4ccccc4)nc3)cnn2c1N` [Compound 5.4, ((1R,3s,5S)-3-(7-amino-6-(methoxymethyl)-3-(6-phenylpyridin-3-yl)pyrazolo[1,5-a]pyrimidin-5-yl)-8-azabicyclo[3.2.1]octan-8-yl)(4H-1,2,4-triazol-3-yl)methanone], the pIC50 in experiment [1] (setting [4]) and in experiment [2] (setting [4]) was 7.00 to 9.00 in each case.
Turning to `CS(=O)(=O)c1c([C@@H]2C[C@H]3CC[C@@H](C2)N3C(=O)C(F)(F)F)nc2c(-c3ccc(-c4ccccc4)nc3)cnn2c1N` [Compound 3.91, 1-((1R,3s,5S)-3-(7-amino-6-(methylsulfonyl)-3-(6-phenylpyridin-3-yl)pyrazolo[1,5-a]pyrimidin-5-yl)-8-azabicyclo[3.2.1]octan-8-yl)-2,2,2-trifluoroethanone], the pIC50 in experiment [1] (setting [3]) and in experiment [2] (setting [3]) was 5.00 to 6.00 throughout.
For the compound `COc1ccc(-c2ccc(-c3cnn4c(N)c(S(C)(=O)=O)c([C@@H]5C[C@H]6CC[C@@H](C5)N6C(=O)c5nnc(N)[nH]5)nc34)cn2)cc1F` [Compound 3.100, ((1R,3s,5S)-3-(7-amino-3-(6-(3-fluoro-4-methoxyphenyl)pyridin-3-yl)-6-(methylsulfonyl)pyrazolo[1,5-a]pyrimidin-5-yl)-8-azabicyclo[3.2.1]octan-8-yl)(5-amino-4H-1,2,4-triazol-3-yl)methanone], the pIC50 in experiment [1] (setting [3]) and in experiment [2] (setting [3]) was 7.00 to 9.00 in each case.
As to `CS(=O)(=O)c1c([C@@H]2C[C@H]3CC[C@@H](C2)N3c2nnc[nH]2)nc2c(-c3ccc(-c4ccccc4)nc3)cnn2c1N` [Compound 3.21, 5-((1R,3s,5S)-8-(4H-1,2,4-triazol-3-yl)-8-azabicyclo[3.2.1]octan-3-yl)-6-(methylsulfonyl)-3-(6-phenylpyridin-3-yl)pyrazolo[1,5-a]pyrimidin-7-amine], the pIC50 in experiment [1] (Table 3-1, PC3 cells) is 5.00 to 6.00; in experiment [2] (Table 3-1, PC3 cells) it was 5.00 to 6.00.
With `CC(=O)c1c([C@@H]2C[C@H]3CC[C@@H](C2)N3C(=O)c2nnc[nH]2)nc2c(-c3cnc(C(C)(C)O)nc3)cnn2c1N` [Compound 1.1.180, 1-(5-((1R,3s,5S)-8-(4H-1,2,4-triazole-3-carbonyl)-8-azabicyclo[3.2.1]octan-3-yl)-7-amino-3-(2-(2-hydroxypropan-2-yl)pyrimidin-5-yl)pyrazolo[1,5-a]pyrimidin-6-yl)ethanone], the pIC50 in experiment [1] (setting [4]) and in experiment [2] (setting [4]) was 6.00 to 7.00 each time.
In the case of `CC(=O)c1c([C@@H]2C[C@H]3CC[C@@H](C2)N3C(=O)c2nc[nH]n2)nc2c(-c3ccc(C(C)O)cc3)cnn2c1N` (stereo partly drawn) [Compound 7.20, 1-(5-((1R,3s,5S)-8-(1H-1,2,4-triazole-3-carbonyl)-8-azabicyclo[3.2.1]octan-3-yl)-7-amino-3-(4-(1-hydroxyethyl)phenyl)pyrazolo[1,5-a]pyrimidin-6-yl)ethanone], the pIC50 in experiment [1] (setting [4]) and in experiment [2] (setting [4]) was 7.00 to 9.00 each time.
In the case of `COCc1c([C@@H]2C[C@H]3CC[C@@H](C2)N3C(=O)c2cc(N)n[nH]2)nc2c(-c3ccc(-c4ccccc4)nc3)cnn2c1N` [Compound 5.5, (3-amino-1H-pyrazol-5-yl)((1R,3s,5S)-3-(7-amino-6-(methoxymethyl)-3-(6-phenylpyridin-3-yl)pyrazolo[1,5-a]pyrimidin-5-yl)-8-azabicyclo[3.2.1]octan-8-yl)methanone], the figures for the pIC50 in experiment [1] (setting [4]) and in experiment [2] (setting [4]) were 5.00 to 6.00 and 6.00 to 7.00, respectively.
For `CC(=O)c1c([C@@H]2C[C@H]3CC[C@@H](C2)N3C(=O)CO)nc2c(-c3ccc(C4(O)CCC4)nc3)cnn2c1N` [Compound 7.18, 1-((1R,3s,5S)-3-(6-acetyl-7-amino-3-(6-(1-hydroxycyclobutyl)pyridin-3-yl)pyrazolo[1,5-a]pyrimidin-5-yl)-8-azabicyclo[3.2.1]octan-8-yl)-2-hydroxyethanone], the pIC50 in experiment [1] (setting [4]) and in experiment [2] (setting [4]) was 6.00 to 7.00 each time.
Regarding `CS(=O)(=O)c1c([C@@H]2C[C@H]3CC[C@@H](C2)N3C(=O)c2cc(C(F)(F)F)n[nH]2)nc2c(-c3ccc(-c4ccccc4)nc3)cnn2c1N` [Compound 3.73, ((1R,3s,5S)-3-(7-amino-6-(methylsulfonyl)-3-(6-phenylpyridin-3-yl)pyrazolo[1,5-a]pyrimidin-5-yl)-8-azabicyclo[3.2.1]octan-8-yl)(3-(trifluoromethyl)-1H-pyrazol-5-yl)methanone], the values for the pIC50 in experiment [1] (setting [3]) and in experiment [2] (setting [3]) were under 5.00 and 5.00 to 6.00, respectively.
Take `CC(=O)c1c([C@@H]2C[C@H]3CC[C@@H](C2)N3C(=O)CO)nc2c(-c3ccc(-n4cccn4)nc3)cnn2c1N` [Compound 1.1.178, 1-((1R,3s,5S)-3-(3-(6-(1H-pyrazol-1-yl)pyridin-3-yl)-6-acetyl-7-aminopyrazolo[1,5-a]pyrimidin-5-yl)-8-azabicyclo[3.2.1]octan-8-yl)-2-hydroxyethanone]: the pIC50 was 6.00 to 7.00 in experiment [1] (setting [4]) and 7.00 to 9.00 in experiment [2] (setting [4]).
For the compound `Nc1cc([C@]2(O)C[C@H]3CC[C@@H](C2)N3C(=O)c2nnc[nH]2)nc2c(-c3ccc(-c4ccccc4)nc3)cnn12` [Compound 8.23, ((1R,3r,5S)-3-(7-amino-3-(6-phenylpyridin-3-yl)pyrazolo[1,5-a]pyrimidin-5-yl)-3-hydroxy-8-azabicyclo[3.2.1]octan-8-yl)(4H-1,2,4-triazol-3-yl)methanone], the pIC50 in experiment [1] (Homo sapiens, PC-3, PC3 cells) is 5.00 to 6.00; in experiment [2] (Homo sapiens, PC-3, PC3 cells), 5.00 to 6.00.
As for `Nc1cc([C@@H]2C[C@H]3CC[C@@H](C2)N3C(=O)c2nnc[nH]2)nc2c(-c3ccc4[nH]ncc4c3)cnn12` [Compound 2.12, ((1R,3s,5S)-3-(7-amino-3-(1H-indazol-5-yl)pyrazolo[1,5-a]pyrimidin-5-yl)-8-azabicyclo[3.2.1]octan-8-yl)(1H-1,2,4-triazol-5-yl)methanone], the pIC50 in experiment [1] (setting [4]) and in experiment [2] (setting [4]) was under 5.00 in each case.
As for `CC(=O)c1c(C2CC3CCC(C2)N3C(=O)c2nnc[nH]2)nc2c(-c3ccc(-c4ccccc4)nc3)cnn2c1N` [Compound 1.1.7, 1-(5-((1R,3s,5S)-8-(1H-1,2,4-triazole-3-carbonyl)-8-azabicyclo[3.2.1]octan-3-yl)-7-amino-3-(6-phenylpyridin-3-yl)pyrazolo[1,5-a]pyrimidin-6-yl)ethanone], the pIC50 in experiment [1] (setting [4]) and in experiment [2] (setting [4]) was 7.00 to 9.00 each time.
Turning to `CC(=O)c1c([C@@H]2C[C@H]3CC[C@@H](C2)N3C(N)=O)nc2c(-c3ccc(-c4ncc[nH]4)nc3)cnn2c1N` [Compound 6.30, (1R,3s,5S)-3-(3-(6-(1H-imidazol-2-yl)pyridin-3-yl)-6-acetyl-7-aminopyrazolo[1,5-a]pyrimidin-5-yl)-8-azabicyclo[3.2.1]octane-8-carboxamide], the pIC50 in experiment [1] (setting [5]) and in experiment [2] (setting [5]) was 7.00 to 9.00 throughout.
With `CS(=O)(=O)c1c([C@@H]2C[C@H]3CC[C@@H](C2)N3C(=O)[C@H](O)CO)nc2c(-c3ccc(-c4ccccc4)nc3)cnn2c1N` [Compound 3.7, (R)-1-((1R,3S,5S)-3-(7-amino-6-(methylsulfonyl)-3-(6-phenylpyridin-3-yl)pyrazolo[1,5-a]pyrimidin-5-yl)-8-azabicyclo[3.2.1]octan-8-yl)-2,3-dihydroxypropan-1-one], the pIC50 in experiment [1] (setting [3]) was 5.00 to 6.00; in experiment [2] (setting [3]), 6.00 to 7.00.
`CCNC(=O)N1[C@@H]2CC[C@H]1C[C@H](c1nc3c(-c4ccc(-c5ccccc5F)nc4)cnn3c(N)c1S(C)(=O)=O)C2` [Compound 3.130, (1R,3s,5S)-3-(7-amino-3-(6-(2-fluorophenyl)pyridin-3-yl)-6-(methylsulfonyl)pyrazolo[1,5-a]pyrimidin-5-yl)-N-ethyl-8-azabicyclo[3.2.1]octane-8-carboxamide]: the pIC50 in experiment [1] (setting [3]) and in experiment [2] (setting [3]) was 6.00 to 7.00 in each case.
